{"source": "patent US9216974B2", "about": "“Phenoxazine derivatives and methods of use thereof” (Washington University, priority 2010, dated 2015)", "key": {"[1]": {"format": "physicochemical", "description": "Hydrophobicity affects drug absorption, bioavailability, hydrophobic drug-receptor interactions, metabolism of molecules, and their toxicity. […] The mixture will be incubated with agitation for 30 min until ionic and non-ionic forms of test compound reach equilibrium. Two layers will be separated by centrifugation. Test compound's concentrations in octanol and water layers will be determined by UV/VIS spectrophotometry. The log Poct value will be calculated from log (concentration in n-octanol fraction/concentration in water fraction). Experiments will be repeated at least 3 times with triplicated samples."}, "[2]": {"biological_target": "CAA (cerebrovascular Aβ deposits) (Homo sapiens, UniProt P05067)", "experiment": "In situ binding assay in fixed brain tissue, CAA", "design": "species or system Tg2576 mice", "from_the_text": "(§1) Tg2576 mice are a well characterized mouse model of AD and CAA. They develop congophilic Aβ aggregates within neuritic plaques and leptomeningeal and cortical penetrating arteries at 11 months of age (Hsiao et al., 1996; Kawarabayashi et al., 2001; Fryer et al., 2005; Han et al., 2008).\n(§2) The Ki values for CAA vs. neuritic plaques will be calculated utilizing the fluorescent amyloid-ligand methoxy-X34 and fluorescent microscopic method. […] Tissue sections (3 sections per reaction) will be then mounted and coverslipped. Photographs of methoxy-X34 binding images will be taken using a Nikon fluorescent microscope. The fluorescent intensity on cerebral amyloid deposits and neuritic plaques will be separately quantified using Image J software. Finally, Ki values will be calculated by plotting % bound vs. log concentrations of competitors followed by non-linear regression using the Graph Pad Prism software. The maximum binding will be obtained from the methoxy-X34 intensity in the absence of competitors, while non-specific binding will be detected by the fluorescent intensity in brain tissues incubated without methoxy-X34.\nIn situ binding assay: Tg2576 mice or littermate controls at 15 months of age will be perfused with phosphatebuffered saline (PBS) for 5 min. Brains will be removed, fixed in 4% paraformaldehyde, and preserved in 30% glucose-PBS solution at 4° C. Brains will be coronally sectioned using a microtome and kept in cryoprotectant solution at −20° C. To label amyloid deposits, brain sections (3 sections per reaction) will be permeabilized with PBS containing 0.25% Triton X-100 for 20 min at room temperature, followed by incubation with 1 μM methoxy-X34 in the presence or absence of competitors at various concentrations (10-9-10-6 M). Sections will be subjected to fluorescent microscopy using a Nikon Eclipse C600 microscope. The fluorescent intensity of methoxy-X34 in vessels and neuritic plaques will be quantified using the ImageJ software. The binding affinity (Ki) will be calculated using the Graph Pad Prism software."}, "CAA": {"biological_target": "CAA (Homo sapiens, UniProt P05067)", "experiment": "Binding affinities for CAA performed on isolated vessels determined by fluorescent binding", "details": "for Kd: read-out: Binding affinity KD; for Ki: read-out: Binding affinity Ki", "description": "The isolation of cerebral vessels for biochemical analysis will be performed as described (78, 98). […] After the cerebellum is removed, the brain will be homogenized in fivefold excess of vessel buffer. An equal volume of 26% dextran will be added, and the tissue will be centrifuged at 6200×g for 30 min at 4° C. The resulting vessels form a pellet, whereas the parenchymal “vessel-free” material forms a solid, compact disc at the top of the solution. The […] will be resuspended in vessel buffer and passed over a 40-μm nylon mesh to capture vessels. Vessel and parenchymal material will be lysed in 5 M guanidine, 50 mM Tris, pH 8, with protease inhibitor cocktail (Roche) for 3 hr."}, "[3]": {"system": "cerebrovascular Aβ deposits", "experiment": "In vivo live imaging of CAA amyloid deposits through closed cranial window", "details": "topical application through cranial window, resorufin 2 μM, 16-month-old Tg2576 mice", "description": "FIG. 4 depicts in vivo live imaging of CAA amyloid deposits through closed cranial window. A,B. Closed cranial window was prepared on the right parietal bone of 16-month-old Tg2576 mice. Leptomeningeal arterioles (B) were subjected to live imaging using a fluorescent microscope. […] Scale bars: in C-E: 250 μm, in E: 100 μm."}, "[4]": {"details": "literature value; cited from earlier work"}, "[5]": {"details": "normal rats; cited from earlier work"}, "[6]": {"details": "normal mice, cited from earlier work"}, "CAA vs. neuritic plaques [7]": {"system": "CAA vs. neuritic plaques", "experiment": "Co-staining of fixed brain sections of Tg2576 mice with fluorescent amyloid dyes", "format": "binding", "details": "aged (16-month-old) Tg2576 mice", "from_the_text": "as §1"}, "neuritic plaques": {"system": "neuritic plaques", "experiment": "In situ binding assay in fixed brain tissue, neuritic plaques", "design": "species or system Tg2576 mice", "details": "in situ binding assay at a concentration of 160 μM", "from_the_text": "as §1, §2\nIn situ binding assay: Tg2576 mice or littermate controls at 15 months of age will be perfused with phosphatebuffered saline (PBS) for 5 min. […] The fluorescent intensity of methoxy-X34 in vessels and neuritic plaques will be quantified using the ImageJ software. […]"}, "[8]": {"system": "Aβ deposits in cerebral vessels", "experiment": "Multi-photon microscopy of whole brains stained with resorufin and phalloidin", "details": "16-month-old Tg2576 mice"}, "CAA vs. neuritic plaques [9]": {"system": "CAA vs. neuritic plaques", "experiment": "Staining of paraffin-embedded cortical brain sections of a human AD patient (3D6 and resorufin)", "format": "binding", "details": "3D6 co-labeling", "from_the_text": "as §1"}}, "note": "“Also recorded” adds a separate entry of the source. Like-named read-outs stand apart in the source and are kept apart here.", "data": [{"compound": "methoxyphenyl-resorufin", "values": [{"measurement": "lipophilicity", "setting": "[1]", "value": "moderate lipophilicity"}, {"measurement": "selective binding affinity for CAA deposits", "setting": "[2]", "value": "low nanomolar range"}]}, {"compound": "O=c1ccc2nc3ccc(OCCBr)cc3oc-2c1", "note": "[WC-5-9]", "values": [{"measurement": "Kd", "setting": "CAA", "value": 927, "unit": "nM"}]}, {"compound": "CCOc1ccc2nc3ccc(=O)cc-3oc2c1", "note": "[Ethoxy-resorufin, 7-ethoxyresorufin]", "values": [{"measurement": "lipophilicity", "setting": "[1]", "value": "moderate lipophilicity"}, {"measurement": "selective binding affinity for CAA deposits", "setting": "[2]", "value": "low nanomolar range"}, {"measurement": "Ki", "setting": "[2]; preliminary studies, read-out: binding affinity (Ki) for cerebrovascular Aβ deposits", "value": 247, "unit": "nM"}]}, {"compound": "COCCOCCOc1ccc2nc3ccc(=O)cc-3oc2c1", "note": "[WC-5-43]", "values": [{"measurement": "Ki", "setting": "CAA", "value": 407, "unit": "nM"}]}, {"compound": "CC(=O)OCCOc1ccc2nc3ccc(=O)cc-3oc2c1", "note": "[WC-5-8]", "values": [{"measurement": "Ki", "setting": "CAA", "value": 860, "unit": "nM"}]}, {"compound": "COc1cc(/C=C/c2ccc(O)cc2)ccc1/C=C/c1ccc(O)cc1", "note": "[methoxy-X04, reference compound]", "values": [{"measurement": "fluorescent labeling of amyloid deposits in live mice", "setting": "[3]", "value": "staining was noted in both arterioles and senile plaques; also recorded: present in both cerebral arteries and parenchymal neuritic plaques"}, {"measurement": "log Poct", "setting": "[4]", "value": 2.6}, {"measurement": "brain clearance estimated half life (t½)", "setting": "[5]", "value": "~45", "unit": "min"}]}, {"compound": "[11CH3]Nc1ccc(-c2nc3ccc(O)cc3s2)cc1", "note": "[[^11C]PIB]", "values": [{"measurement": "brain level", "setting": "[6]; 2 min after injection", "value": 3.2, "unit": "% ID/g"}, {"measurement": "brain level", "setting": "[6]; 60 min", "value": 0.21, "unit": "% ID/g"}, {"measurement": "fraction in the brain cleared", "setting": "[6]; within 60 min", "value": 93, "unit": "%"}]}, {"compound": "O=c1ccc2nc3ccc(OCc4ccc(I)cc4)cc3oc-2c1", "note": "[WC-5-31]", "values": [{"measurement": "Kd", "setting": "CAA", "value": "> 10000", "unit": "nM"}]}, {"compound": "COc1cc(C=Cc2ccc(O)c(C(=O)O)c2)ccc1C=Cc1ccc(O)c(C(=O)O)c1", "note": "[methoxy-X34, reference compound]", "values": [{"measurement": "affinity for CAA vs. neuritic plaques", "setting": "[2]; in situ binding assay", "value": "almost an equal affinity for both CAA and neuritic plaques"}, {"measurement": "staining of CAA vs. neuritic plaques", "setting": "CAA vs. neuritic plaques [7]", "value": "labeled amyloid deposited in both CAA and neuritic plaques; also recorded: visualized both CAA and neuritic plaques"}]}, {"compound": "O=c1ccc2nc3ccc(OCc4cn(CCF)nn4)cc3oc-2c1", "note": "[WC-5-3]", "values": [{"measurement": "Kd", "setting": "CAA", "value": 2380, "unit": "nM"}]}, {"compound": "COCCOc1ccc2nc3ccc(=O)cc-3oc2c1", "note": "[WC-5-42]", "values": [{"measurement": "Ki", "setting": "CAA", "value": 347, "unit": "nM"}]}, {"compound": "COc1cccc(COc2ccc3nc4ccc(=O)cc-4oc3c2)c1", "note": "[WC-5-4]", "values": [{"measurement": "Kd", "setting": "CAA", "value": 537, "unit": "nM"}]}, {"compound": "COc1ccc(OCCOCCOc2ccc3nc4ccc(=O)cc-4oc3c2)cc1", "note": "[WC-5-47]", "values": [{"measurement": "Ki", "setting": "CAA", "value": "> 10000", "unit": "nM"}]}, {"compound": "O=c1ccc2nc3ccc(O)cc3oc-2c1", "note": "[Resorufin, resorufin]", "values": [{"measurement": "binding to neuritic plaques", "setting": "neuritic plaques", "value": "negligible"}, {"measurement": "intensity of resorufin staining by vessel type", "setting": "[8]", "value": "greater in pial arterioles than in penetrating arterioles or capillaries"}, {"measurement": "log Poct", "setting": "[1]; 30 min", "value": 0.427}, {"measurement": "fluorescent labeling of amyloid deposits in live mice", "setting": "[3]", "value": "selectively labeled amyloid deposits in arterioles"}, {"measurement": "fluorescent labeling of amyloid deposits in live mice", "setting": "[3]; listed as resorufin", "value": "marked fluorescent labeling within the walls of leptomeningeal arteries (but not in neuritic plaques); also recorded: visualized cerebrovascular Aβ deposits"}, {"measurement": "staining of CAA vs. neuritic plaques", "setting": "CAA vs. neuritic plaques [7]", "value": "CAA>>>neuritic plaques"}, {"measurement": "staining of CAA vs. neuritic plaques", "setting": "CAA vs. neuritic plaques [7]; listed as resorufin", "value": "selectively bound fibrillar amyloid-laden arterioles"}, {"measurement": "staining of arterioles vs. neuritic plaques in human AD brain", "setting": "CAA vs. neuritic plaques [9]", "value": "selectively labeled 3D6-immunoreactive amyloid deposits in arterioles but less likely neuritic plaques; also recorded: prominent in 3D6-positive cerebral arterioles but was rarely seen in 3D6-positive neuritic plaques"}]}, {"compound": "O=c1ccc2nc3ccc(OCCF)cc3oc-2c1", "note": "[WC-5-2]", "values": [{"measurement": "Kd", "setting": "CAA", "value": 800, "unit": "nM"}]}, {"compound": "COc1ccc(COc2ccc3nc4ccc(=O)cc-4oc3c2)cc1", "note": "[WC-5-5]", "values": [{"measurement": "Ki", "setting": "CAA", "value": 218, "unit": "nM"}]}, {"compound": "C#COc1ccc2nc3ccc(=O)cc-3oc2c1", "note": "[WC-5-1]", "values": [{"measurement": "Kd", "setting": "CAA", "value": 828, "unit": "nM"}, {"measurement": "Ki", "setting": "CAA", "value": 4610, "unit": "nM"}]}, {"compound": "COc1ccc2nc3ccc(=O)cc-3oc2c1", "note": "[Methoxy-resorufin]", "values": [{"measurement": "Ki", "setting": "CAA", "value": 4680, "unit": "nM"}]}, {"compound": "phenyl-resorufin", "values": [{"measurement": "lipophilicity", "setting": "[1]", "value": "moderate lipophilicity"}, {"measurement": "selective binding affinity for CAA deposits", "setting": "[2]", "value": "low nanomolar range"}]}, {"compound": "COc1ccc(OCCOc2ccc3nc4ccc(=O)cc-4oc3c2)cc1", "note": "[WC-5-45]", "values": [{"measurement": "Ki", "setting": "CAA", "value": 421, "unit": "nM"}]}]}
